US5972933A, “Method of treating microbial infections” (Ed. Geistlich Sohne AG Fur Chemische Industrie, priority 1998, dated 1999)
In brackets after ≈: the same amount, converted by molar mass. Like-named read-outs stand apart in the source and are kept apart here.

Assays:
Type in all cases: cell-based
Enterococcus faecium = assay: Taurolidine in vitro susceptibility, E. faecium (Example 4); details: E. faecium, all strains
Excerpt: (§1) The in vitro susceptibility to taurolidine of a panel of clinical isolates and reference strains of Enterococcus faecium (n=20,7 strains vancomycin resistant) and Enterococcus faecalis (n-53,5 strains vancomycin resistant) has been examined. […] In all cases, the Minimum Bacteriocidal Concentration (MBC) of taurolidine was within 2 dilutions of the corresponding value for MIC confirming a bactericidal mode of action. In vitro resistance to taurolidine was not observed.

[1] = tested on: Methicillin-Resistant Staphylococcus aureus (MRSA); assay: Taurolidine MIC by broth microdilution, methicillin-resistant S. aureus (EMRSA 15); details: compared to NCTC 6571 or previous studies with fully sensitive strains
Method: All test strains were clinical isolates recovered from patients attending Hammersmith Hospital, London. Strains of Staphylococcus aureus (epidemic methicillin-resistant strain 15 (EMRSA 15) and vancomycin-resistant Enterococcus faecalis were broadly unselected isolates from local culture collections. However, strain selection was conducted so as to ensure that isolates were not consecutive isolates from individual patients.
Taurolidine MICs were performed using a sample of authenticated anhydrous micronised taurolidine batch number E/40522/4 (Geistlich Pharma AG, Wolhusen, Switzerland).
An aqueous stock solution of taurolidine was prepared to contain 2 g/100 ml taurolidine in water. This preparation was solubilized and sterilized by heating to 121° C. (15 psi) for 15 minutes.
Using this stock solution, serial doubling dilution of taurolidine were prepared in Unipath (Oxoid) Nutrient Broth Number 2 using 50 μl volumes in sterile round bottom microdilution trays. To these dilutions was added an equal volume of drug-free broth containing a suspension of the test organism to give a final inoculumn density of approximately 10^3 cfu. Inocula were prepared from overnight drug-free broth cultures of each test organism in Unipath (Oxoid) Nutrient Broth Number 2.
Final test concentrations of taurolidine were as follows:
All tests were incubated at 37 C for 18 hours. […]

Enterococcus faecalis = assay: Taurolidine in vitro susceptibility, E. faecalis (Example 4)
Excerpt: as §1

Staph. app. = assay: Two percent taurolidine solution tested against bacteria, Staph. app. (Example 5); details: 5×10^4 CFU/well
Method: Two percent taurolidine solution was tested against various bacteria at 5×10^4 CFU/well, according to Manual of Clinical Microbiology, 6th edition, P. R. Murray et al., pp. 1334-1335.

## O=S1(=O)CCN(CN2CCS(=O)(=O)NC2)CN1 [Taurolidine]
Enterococcus faecium; read-out: MIC, Median
  MIC: 250 µg/mL (≈ 879 µM)
Enterococcus faecium; read-out: MIC, Min.
  MIC: 95 µg/mL (≈ 334 µM)
Enterococcus faecium; read-out: MIC, Mode
  MIC: 375 µg/mL (≈ 1320 µM)
[1]
  difference in level of susceptibility to taurolidine: no difference in level of susceptibility to taurolidine
Enterococcus faecalis; E. faecalis strains, read-out: MIC range
  MIC: 125 to 500 µg/mL (≈ 440 to 1760 µM)
Enterococcus faecalis; E. faecalis, VAN R strains, read-out: MBC, Avg.
  MBC: 500 µg/mL (≈ 1760 µM)
Enterococcus faecalis; E. faecalis, VAN R strains, read-out: MBC, Max.
  MBC: 750 µg/mL (≈ 2640 µM)
Enterococcus faecalis; E. faecalis, VAN R strains, read-out: MBC, Mean
  MBC: 500 µg/mL (≈ 1760 µM)
Enterococcus faecalis; E. faecalis, VAN R strains, read-out: MBC, Median
  MBC: 500 µg/mL (≈ 1760 µM)
Enterococcus faecalis; E. faecalis, VAN R strains, read-out: MBC, Min.
  MBC: 500 µg/mL (≈ 1760 µM)
Enterococcus faecalis; E. faecalis, VAN R strains, read-out: MBC, Mode
  MBC: 500 µg/mL (≈ 1760 µM)
Enterococcus faecalis; E. faecalis, VAN R strains, read-out: MIC, Avg.
  MIC: 213 µg/mL (≈ 749 µM)
Enterococcus faecalis; E. faecalis, VAN R strains, read-out: MIC, Max.
  MIC: 375 µg/mL (≈ 1320 µM)
Enterococcus faecalis; E. faecalis, VAN R strains, read-out: MIC, Mean
  MIC: 213 µg/mL (≈ 749 µM)
Enterococcus faecalis; E. faecalis, VAN R strains, read-out: MIC, Median
  MIC: 250 µg/mL (≈ 879 µM)
Enterococcus faecalis; E. faecalis, VAN R strains, read-out: MIC, Min.
  MIC: 125 µg/mL (≈ 440 µM)
Enterococcus faecalis; E. faecalis, VAN R strains, read-out: MIC, Mode
  MIC: 250 µg/mL (≈ 879 µM)
Enterococcus faecalis; E. faecalis, VAN S strains, read-out: MBC, Avg.
  MBC: 566 µg/mL (≈ 1990 µM)
Enterococcus faecalis; E. faecalis, VAN S strains, read-out: MBC, Max.
  MBC: 750 µg/mL (≈ 2640 µM)
Enterococcus faecalis; E. faecalis, VAN S strains, read-out: MBC, Mean
  MBC: 566 µg/mL (≈ 1990 µM)
Enterococcus faecalis; E. faecalis, VAN S strains, read-out: MBC, Median
  MBC: 500 µg/mL (≈ 1760 µM)
Enterococcus faecalis; E. faecalis, VAN S strains, read-out: MBC, Min.
  MBC: 375 µg/mL (≈ 1320 µM)
Enterococcus faecalis; E. faecalis, VAN S strains, read-out: MBC, Mode
  MBC: 500 µg/mL (≈ 1760 µM)
Enterococcus faecalis; E. faecalis, VAN S strains, read-out: MIC, Avg.
  MIC: 289 µg/mL (≈ 1020 µM)
Enterococcus faecalis; E. faecalis, VAN S strains, read-out: MIC, Max.
  MIC: 500 µg/mL (≈ 1760 µM)
Enterococcus faecalis; E. faecalis, VAN S strains, read-out: MIC, Mean
  MIC: 289 µg/mL (≈ 1020 µM)
Enterococcus faecalis; E. faecalis, VAN S strains, read-out: MIC, Median
  MIC: 250 µg/mL (≈ 879 µM)
Enterococcus faecalis; E. faecalis, VAN S strains, read-out: MIC, Min.
  MIC: 190 µg/mL (≈ 668 µM)
Enterococcus faecalis; E. faecalis, VAN S strains, read-out: MIC, Mode
  MIC: 250 µg/mL (≈ 879 µM)
Enterococcus faecalis; E. faecalis, VAN S, Germany, read-out: MBC, (VAN S) model
  MBC: 750 µg/mL (≈ 2640 µM)
Enterococcus faecalis; E. faecalis, VAN S, Germany, read-out: MIC, (VAN S) model
  MIC: 375 µg/mL (≈ 1320 µM)
Enterococcus faecalis; E. faecalis, VAN S, Switzerland, read-out: MBC, (VAN S) model
  MBC: 500 µg/mL (≈ 1760 µM)
Enterococcus faecalis; E. faecalis, VAN S, Switzerland, read-out: MIC, (VAN S) model
  MIC: 375 µg/mL (≈ 1320 µM)
Enterococcus faecalis; E. faecalis, VAN S, UK, read-out: MBC, (VAN S) model
  MBC: 500 µg/mL (≈ 1760 µM)
Enterococcus faecalis; E. faecalis, VAN S, UK, read-out: MIC, (VAN S) model
  MIC: 250 µg/mL (≈ 879 µM)
Enterococcus faecalis; E. faecalis, all strains, read-out: MBC, Avg.
  MBC: 606 µg/mL (≈ 2130 µM)
Enterococcus faecalis; E. faecalis, all strains, read-out: MBC, Max.
  MBC: 750 µg/mL (≈ 2640 µM)
Enterococcus faecalis; E. faecalis, all strains, read-out: MBC, Mean
  MBC: 606 µg/mL (≈ 2130 µM)
Enterococcus faecalis; E. faecalis, all strains, read-out: MBC, Median
  MBC: 500 µg/mL (≈ 1760 µM)
Enterococcus faecalis; E. faecalis, all strains, read-out: MBC, Min.
  MBC: 375 µg/mL (≈ 1320 µM)
Enterococcus faecalis; E. faecalis, all strains, read-out: MBC, Mode
  MBC: 500 µg/mL (≈ 1760 µM)
Enterococcus faecalis; E. faecalis, all strains, read-out: MIC, Avg.
  MIC: 310 µg/mL (≈ 1090 µM)
Enterococcus faecalis; E. faecalis, all strains, read-out: MIC, Max.
  MIC: 500 µg/mL (≈ 1760 µM)
Enterococcus faecalis; E. faecalis, all strains, read-out: MIC, Mean
  MIC: 310 µg/mL (≈ 1090 µM)
Enterococcus faecalis; E. faecalis, all strains, read-out: MIC, Median
  MIC: 375 µg/mL (≈ 1320 µM)
Enterococcus faecalis; E. faecalis, all strains, read-out: MIC, Min.
  MIC: 125 µg/mL (≈ 440 µM)
Enterococcus faecalis; E. faecalis, all strains, read-out: MIC, Mode
  MIC: 375 µg/mL (≈ 1320 µM)
Staph. app.; 24 h
  MBC: 375 µg/mL (≈ 1320 µM)
Staph. app.; 24 h, read-out: MIC 24 h
  MIC: 190 µg/mL (≈ 668 µM)
Staph. app.; 48 h, read-out: MIC 48 h
  MIC: 250 µg/mL (≈ 879 µM)
